This assay relates to STAT3 phosphorylation in NCI-H1975 cells. The assay can be described thus: Cellular pSTAT3 assay in NCI-H1975 cells. In kind it is cell-based. The note with it: Homo sapiens, 2 hours with compound. The protocol:
NCI-H1975 cells were plated onto Costar #3701 96 or 384 well tissue-culture treated plates at 5,000 cells/well in 30 uL medium (RPMI, 10% FBS, supplemented with L-glutamine) and incubated overnight at 37° C. in 5% CO2. Phospho STAT3 signal was quantitated utilizing Cell Signaling Technology #7146B Pathscan […] STAT3 antibody pair kit, following manufacturer's instructions.
Cells were dosed with compound and incubated at 37° C. in 5% CO2 for 2 hours, after which medium and compound were aspirated and cells lysed with 35 uL cold 1×Cell Signaling Lysis buffer and chilled at 4° C. for 1-2 hours. Lysate was incubated on STAT3 capture plates at 4° C. overnight, washed 3× with Tris-Buffered Saline with 0.05% Tween® 20 (TBST), then […] STAT3 detection antibody was applied for 2 hours. Following washing with TBST (3×), HRP-secondary antibody was applied for 2 hours. After additional washing, signal was detected using TMB and Stop solution and read at 450 nm using Tecan Infinite M100.

Bounds are passed on as bounds.

With `CCN1CCN([C@H](C)C(=O)Nc2cccc3c(-c4ccnc(Nc5cn(C)nc5OC)n4)c[nH]c23)CC1` [Example 28, (2R)-2-(4-ethylpiperazin-1-yl)-N-(3-{2-[(3-methoxy-1-methyl-1H-pyrazol-4-yl)amino]pyrimidin-4-yl}-1H-indol-7-yl)propanamide], the IC50 was found to be 100 nM.
With `CCOc1nn(C)cc1Nc1ncc(F)c(-c2c[nH]c3c(NC(=O)[C@@H](C)N4CCN(C)C[C@@H]4C)cccc23)n1` [Example 10a, (2R)-2-[(2S)-2,4-dimethylpiperazin-1-yl]-N-(3-{2-[(3-ethoxy-1-methyl-1H-pyrazol-4-yl)amino]-5-fluoropyrimidin-4-yl}-1H-indol-7-yl)propanamide], the IC50 was 531 nM.
The value for `COc1nn(C)cc1Nc1ncc(F)c(-c2c[nH]c3c(NC(=O)[C@@H](C)N4CCN(C)[C@H](C)C4)cccc23)n1` [Example 2, (2R)-2-[(3R)-3,4-dimethylpiperazin-1-yl]-N-(3-{5-fluoro-2-[(3-methoxy-1-methyl-1H-pyrazol-4-yl)amino]pyrimidin-4-yl}-1H-indol-7-yl)propanamide] was 227 nM; that for `CCOc1nn(C)cc1Nc1ncc(F)c(-c2c[nH]c3c(NC(=O)[C@H](C)N4CCN(C)C[C@@H]4C)cccc23)n1` [Example 10b, (2S)-2-[(2S)-2,4-dimethylpiperazin-1-yl]-N-(3-{2-[(3-ethoxy-1-methyl-1H-pyrazol-4-yl)amino]-5-fluoropyrimidin-4-yl}-1H-indol-7-yl)propanamide] was over 3000 nM.
With `CCOc1nn(C)cc1Nc1ncc(C)c(-c2c[nH]c3c(NC(=O)[C@@H](CC)N4CCN(C)CC4)cccc23)n1` [Example 62, (2R)-N-(3-{2-[(3-ethoxy-1-methyl-1H-pyrazol-4-yl)amino]-5-methylpyrimidin-4-yl}-1H-indol-7-yl)-2-(4-methylpiperazin-1-yl)butanamide] the figure was 104 nM; with `CCOc1nn(C)cc1Nc1ncc(C)c(-c2c[nH]c3c(NC(=O)[C@@H](C)N4CCN(C)C[C@H]4C)cccc23)n1` [Example 23, (2R)-2-[(2R)-2,4-dimethylpiperazin-1-yl]-N-(3-{2-[(3-ethoxy-1-methyl-1H-pyrazol-4-yl)amino]-5-methylpyrimidin-4-yl}-1H-indol-7-yl)propanamide], 410 nM.
The value for `COc1nn(C)cc1Nc1ncc(C)c(-c2c[nH]c3c(NC(=O)[C@@H](C)N4CCN(C)C[C@H]4C)cccc23)n1` [Example 38, (2R)-2-[(2R)-2,4-dimethylpiperazin-1-yl]-N-(3-{2-[(3-methoxy-1-methyl-1H-pyrazol-4-yl)amino]-5-methylpyrimidin-4-yl}-1H-indol-7-yl)propanamide] was 108 nM.
Turning to `CCOc1nn(C)cc1Nc1ncc(F)c(-c2c[nH]c3c(NC(=O)[C@H](C)N4CCN(C)[C@@H](C)C4)cccc23)n1` [Example 11b, (2S)-2-[(3S)-3,4-dimethylpiperazin-1-yl]-N-(3-{2-[(3-ethoxy-1-methyl-1H-pyrazol-4-yl)amino]-5-fluoropyrimidin-4-yl}-1H-indol-7-yl)propanamide], the IC50 stood at 2280 nM.
With `COC[C@H](C(=O)Nc1cccc2c(-c3nc(Nc4cn(C)nc4OC)ncc3C)c[nH]c12)N1CCN(C)CC1` [Example 45, (2R)-3-methoxy-N-(3-{2-[(3-methoxy-1-methyl-1H-pyrazol-4-yl)amino]-5-methylpyrimidin-4-yl}-1H-indol-7-yl)-2-(4-methylpiperazin-1-yl)propanamide] the figure was 60.3 nM; with `CCOc1nn(C)cc1Nc1ncc(C)c(-c2c[nH]c3c(NC(=O)[C@H](CC)N4CCN(C)CC4)cccc23)n1` [Example 63, (2S)-N-(3-{2-[(3-ethoxy-1-methyl-1H-pyrazol-4-yl)amino]-5-methypyrimidin-4-yl}-1H-indol-7-yl)-2-(4-methylpiperazin-1-yl)butanamide], 433 nM; with `CCOc1nn(C)cc1Nc1ncc(F)c(-c2c[nH]c3c(NC(=O)[C@@H](C)N4CCN(C)[C@H](C)C4)cccc23)n1` [Example 13, (2R)-2-[(3R)-3,4-dimethylpiperazin-1-yl]-N-(3-{2-[(3-ethoxy-1-methyl-1H-pyrazol-4-yl)amino]-5-fluoropyrimidin-4-yl}-1H-indol-7-yl)propanamide], 222 nM.
`CC[C@@H](C(=O)Nc1cccc2c(-c3nc(Nc4cn(C)nc4OC)ncc3F)c[nH]c12)N1CCN(C)CC1` [Example 52, (2S)-N-(3-{5-fluoro-2-[(3-methoxy-1-methyl-1H-pyrazol-4-yl)amino]pyrimidin-4-yl}-1H-indol-7-yl)-2-(4-methylpiperaizn-1-yl)butanamide]: the IC50 came out at 548 nM.
For `CCOc1nn(C)cc1Nc1ncc(C)c(-c2c[nH]c3c(NC(=O)[C@@H](C)N4CCN(CCOC)CC4)cccc23)n1` [Example 21, (2R)-N-(3-{2-[(3-ethoxy-1-methyl-1H-pyrazol-4-yl)amino]-5-methylpyrimidin-4-yl}-1H-indol-7-yl)-2-[4-(2-methoxyethyl)piperazin-1-yl]propanamide], the IC50 was determined as 703 nM.
Consider `CCOc1nn(C)cc1Nc1ncc(C)c(-c2c[nH]c3c(NC(=O)[C@@H](C)N4CCN(CC)CC4)cccc23)n1` [Example 20, (2R)-N-(3-{2-[(3-ethoxy-1-methyl-1H-pyrazol-4-yl)amino]-5-methylpyrimidin-4-yl}-1H-indol-7-yl)-2-(4-ethylpiperazin-1-yl)propanamide], for which the IC50 stood at 184 nM.
As for `CCOc1nn(C)cc1Nc1ncc(F)c(-c2c[nH]c3c(NC(=O)[C@@H](C)N4CCN(C)[C@@H](C)C4)cccc23)n1` [Example 11a, (2R)-2-[(3S)-3,4-dimethylpiperazin-1-yl]-N-(3-{2-[(3-ethoxy-1-methyl-1H-pyrazol-4-yl)amino]-5-fluoropyrimidin-4-yl}-1H-indol-7-yl)propanamide], the 50% inhibitory concentration (IC50) was determined as 209 nM.
Consider `CCOc1nn(C)cc1Nc1ncc(F)c(-c2c[nH]c3c(NC(=O)[C@@H](C)N4CCN(CC)CC4)cccc23)n1` [Example 8, (2R)-N-(3-{2[(3-ethoxy-1-methyl-1H-pyrazol-4-yl)amino]-5-fluoropyrimidin-4-yl}-1H-indol-7-yl)-2-(4-ethylpiperazin-1-yl)propanamide], for which the IC50 stood at 191 nM.
Take `CCOc1nn(C)cc1Nc1ncc(C)c(-c2c[nH]c3c(NC(=O)[C@@H](C)N4CCN(C)C[C@@H]4C)cccc23)n1` [Example 22, (2R)-2-[(2S)-2,4-dimethylpiperazin-1-yl]-N-(3-{2-[(3-ethoxy-1-methyl-1H-pyrazol-4-yl)amino]-5-methylpyrimidin-4-yl}-1H-indol-7-yl)propanamide]: the IC50 came out at 550 nM.
The value for `CCOc1nn(C)cc1Nc1ncc(F)c(-c2c[nH]c3c(NC(=O)[C@@H](C)N4CCN(C)CC4)cccc23)n1` [Example 39, (2R)-N-(3-{2-[(3-ethoxy-1-methyl-1H-pyrazol-4-yl)amino]-5-fluoropyrimidin-4-yl}-1H-indol-7-yl)-2-(4-methylpiperazin-1-yl)propanamide] was 191 nM; that for `COC[C@@H](C(=O)Nc1cccc2c(-c3nc(Nc4cn(C)nc4OC)ncc3C)c[nH]c12)N1CCN(C)CC1` [Example 46, (2S)-3-methoxy-N-(3-{2-[(3-methoxy-1-methyl-1H-pyrazol-4-yl)amino]-5-methylpyrimidin-4-yl}-1H-indol-7-yl)-2-(4-methylpiperazin-1-yl)propanamide] was 1280 nM.

A word on the IC50: it is the concentration at which inhibition is half-maximal.

Values taken from patent US10167276B2, “Compounds and methods for inhibiting JAK” (Dizal (Jiangsu) Pharmaceutical Co., Ltd., priority 2015, dated 2019).
